Experimental data: the CheMixHub drug solubility set

Experiment: xn = mol fraction of the nth substance listed, in the solute-free solvent

Cc1c(Br)c(=O)n(C2CCCC2)c2nc(Cl)ncc12 + C1CCOC1 + CCO
solubility (g/100 g solution)
Conditions	278.15 K	283.15 K	288.15 K	293.15 K	298.15 K	303.15 K	308.15 K	313.15 K	318.15 K	323.15 K
x2 = 0.1	0.59	0.723	0.88	1.07	1.28	1.53	1.82	2.14	2.52	2.94
x2 = 0.2	1.06	1.25	1.51	1.81	2.16	2.56	3.01	3.52	4.1	4.74
x2 = 0.3	1.49	1.8	2.16	2.58	3.05	3.6	4.21	4.9	5.66	6.51
x2 = 0.4	1.9	2.29	2.74	3.26	3.84	4.51	5.26	6.1	7.04	8.07
x2 = 0.5	2.25	2.71	3.34	3.83	4.52	5.29	6.16	7.13	8.2	9.38
x2 = 0.6	2.56	3.07	3.67	4.35	5.12	5.99	6.96	8.04	9.23	10.5
x2 = 0.7	2.85	3.42	4.08	4.83	5.68	6.64	7.71	8.9	10.2	11.7
x2 = 0.8	3.12	3.75	4.47	5.29	6.22	7.27	8.44	9.73	11.2	12.7
x2 = 0.9	3.34	4.01	4.79	5.67	6.67	7.79	9.04	10.4	11.9	13.6

Cc1c(Br)c(=O)n(C2CCCC2)c2nc(Cl)ncc12 + CC1=CC(=O)CC(C)(C)C1 + CC(C)O
solubility (g/100 g solution)
Conditions	278.15 K	283.15 K	288.15 K	293.15 K	298.15 K	303.15 K	308.15 K	313.15 K	318.15 K	323.15 K
x2 = 0.1	0.104	0.147	0.203	0.285	0.388	0.522	0.702	0.929	1.27	1.59
x2 = 0.2	0.167	0.234	0.327	0.45	0.61	0.819	1.09	1.43	1.87	2.42
x2 = 0.3	0.232	0.325	0.45	0.614	0.828	1.11	1.47	1.92	2.49	3.21
x2 = 0.4	0.288	0.401	0.554	0.752	1.02	1.35	1.79	2.33	3.02	3.87
x2 = 0.5	0.332	0.458	0.633	0.862	1.16	1.54	2.03	2.65	3.43	4.39
x2 = 0.6	0.364	0.506	0.697	0.947	1.27	1.69	2.23	2.9	3.75	4.8
x2 = 0.7	0.391	0.543	0.746	1.01	1.37	1.82	2.39	3.12	4.02	5.14
x2 = 0.8	0.416	0.579	0.796	1.08	1.45	1.93	2.54	3.32	4.28	5.48
x2 = 0.9	0.441	0.613	0.844	1.15	1.54	2.05	2.7	3.52	4.55	5.82

CCOc1ccccc1C(N)=O + CC#N + CC(C)O
solubility (g/100 g solution)
Conditions	x2 = 0.1	x2 = 0.2	x2 = 0.3	x2 = 0.4	x2 = 0.5	x2 = 0.6	x2 = 0.7	x2 = 0.8	x2 = 0.9
298.15 K	4.36	5.28	6.05	6.41	6.8	6.66	6.22	5.59	4.71
303.15 K	5.5	6.58	7.52	8.13	8.55	8.45	7.99	7.3	6.12
308.15 K	6.49	7.95	9.11	10.1	10.4	10.5	10.1	9.2	7.99
313.15 K	8.08	9.85	11.3	12.4	13	13	12.6	11.7	9.97
318.15 K	10.2	12.3	14.1	15.4	16.1	16.2	15.6	14.4	12.6
323.15 K	13	15.5	17.7	19.2	20.1	20.3	19.6	18.3	16.1

CCOc1ccccc1C(N)=O + CC#N + CCO
323.15 K
Conditions	solubility (g/100 g solution)
x2 = 0.1	17.4
x2 = 0.2	19.8
x2 = 0.3	21.8
x2 = 0.4	23.3
x2 = 0.5	23.9
x2 = 0.6	23.3
x2 = 0.7	21.7
x2 = 0.8	19.3
x2 = 0.9	16.4

CCOC(=O)OC1=C(c2cc(C)ccc2C)C(=O)NC12CCC(OC)CC2 (centres undefined) + CC(C)=O + O
solubility (g/100 g solution)
Conditions	278.15 K	283.15 K	288.15 K	293.15 K	298.15 K	303.15 K	308.15 K	313.15 K	318.15 K
x2 = 0.2	0.475	0.687	0.839	1.08	1.39	1.78	2.25	2.83	3.61
x2 = 0.4	3.7	4.54	5.58	6.92	8.55	10.5	12.8	15.7	19
x2 = 0.6	7.51	9.16	10.8	13	15.4	18.3	21.6	25.5	29.7
x2 = 0.8	9.34	10.6	12.6	14.8	17.3	20.3	23.7	27.4	31.4

Cc1nc2n(c(=O)c1CCN1CCC(c3noc4cc(F)ccc34)CC1)CCCC2 + CC(C)=O + O
solubility (g/100 g solution)
Conditions	278.15 K	283.15 K	288.15 K	293.15 K	298.15 K	303.15 K	308.15 K	313.15 K
x2 = 0.1175	0.369	0.399	0.453	0.525	0.623	0.702	0.817	0.918
x2 = 0.1714	0.727	0.805	0.935	1.11	1.27	1.53	1.7	2.03
x2 = 0.2368	1.54	1.75	2.02	2.34	2.73	3.22	3.75	4.38
x2 = 0.3171	2.54	2.93	3.36	3.95	4.61	5.44	6.41	7.62
x2 = 0.42	3.38	3.87	4.49	5.26	6.16	7.21	8.51	10.1
x2 = 0.5538	3.5	4.03	4.71	5.51	6.46	7.65	9.06	10.7
x2 = 0.7366	2.51	2.92	3.5	4.08	4.75	5.67	6.67	7.88

Nc1nc2ccc(OC(F)(F)F)cc2s1 + CC(C)=O + O
solubility (g/100 g solution)
Conditions	278.15 K	283.15 K	288.15 K	293.15 K	298.15 K	303.15 K	308.15 K	313.15 K	318.15 K	323.15 K
x2 = 0.1174	2.79	2.99	3.26	3.49	3.89	4.23	4.48	4.79	4.98	5.23
x2 = 0.1714	6.6	6.96	7.42	7.95	8.29	8.75	9.09	9.43	9.77	10.1
x2 = 0.2367	25.5	25.9	26.5	27	27.6	28	28.5	29.1	29.8	30.1
x2 = 0.3175	40.2	40.6	40.9	41.1	41.5	41.8	42	42.3	42.7	43
x2 = 0.4203	55.1	56.3	57	57.7	59	60.2	61.1	62.2	62.9	63.6
x2 = 0.5537	70.6	71.7	72.7	73.6	74.5	75.3	76.2	76.7	77.2	77.8
x2 = 0.7361	68	69	69.9	71	71.8	72.8	73.6	74.2	75	75.7

CC(S)C(=O)NCC(=O)O (centres undefined) + CC(C)CO + CC#N
solubility (g/100 g solution)
Conditions	273.15 K	278.15 K	283.15 K	288.15 K	293.15 K	298.15 K	303.15 K	308.15 K	313.15 K	318.15 K
x2 = 0.1216	3.99	4.43	4.93	5.48	6.05	6.7	7.36	8.06	8.81	9.64
x2 = 0.2697	4.62	5.31	6.02	6.81	7.59	8.41	9.25	10.1	11.2	12.4
x2 = 0.4538	7.02	7.59	8.23	8.89	9.58	10.4	11.1	12	13	13.9
x2 = 0.689	4.17	4.7	5.22	5.84	6.48	7.14	7.88	8.69	9.56	10.5

CC(S)C(=O)NCC(=O)O (centres undefined) + CC(C)CO + Cc1ccccc1
solubility (g/100 g solution)
Conditions	273.15 K	278.15 K	283.15 K	288.15 K	293.15 K	298.15 K	303.15 K	308.15 K	313.15 K	318.15 K
x2 = 0.2371	0.622	0.677	0.744	0.819	0.9	0.989	1.09	1.21	1.34	1.48
x2 = 0.4531	1.14	1.3	1.45	1.64	1.87	2.12	2.37	2.63	2.92	3.35
x2 = 0.6509	1.71	1.98	2.28	2.67	3.04	3.56	4.09	4.71	5.39	6.3
x2 = 0.8325	2.92	3.45	4.01	4.57	5.19	5.87	6.57	7.38	8.31	9.34

CCOc1ccccc1C(N)=O + CC(C)O + CC#N
293.15 K
Conditions	solubility (g/100 g solution)
x2 = 0.1	3.74
x2 = 0.2	4.36
x2 = 0.3	4.92
x2 = 0.4	5.26
x2 = 0.5	5.44
x2 = 0.6	5.14
x2 = 0.7	4.81
x2 = 0.8	4.2
x2 = 0.9	3.48
